What follows are molecules tested on Human Umbilical Vein Endothelial cells (VEGF-stimulated) (assay: HUVEC proliferation assay, VEGF-stimulated). Details: VEGF 50 ng/mL, 72 h, CyQuant, read-out: inhibited VEGF-stimulated HUVEC proliferation at a level.
Type: cell-based
How it was run: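 Pooled-donor HUVECs (passage 2–3) seeded in DMEM+10% FBS for 22 h, then pre-treated 2–3 h with five-point, five-fold compound dilutions (0.25% DMSO final). Stimulated with 50 ng/mL VEGF (bFGF 20 ng/mL on separate plates) for 72 h at 37 °C. CyQuant fluorescence (485/530 nm) after freeze-thaw; IC50 from 4-parameter fit.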

Row | Structure (SMILES) | IC50 [nM]
1 | CC(=O)N1CC(C)(C)c2ccc(NC(=O)c3cccnc3NCc3ccncn3)cc21 [Example 1022, N-(1-Acetyl-3,3-dimethyl-2,3-dihydro-1H-indol-6-yl)-2-((4-pyrimidinylmethyl)amino)-3-pyridinecarboxamide] | < 50
2 | O=C(Nc1cc(OCC2CNC2)cc(C(F)(F)F)c1)c1cccnc1NCc1ccncc1 [Example 977, N-[3-(azetidin-3-ylmethoxy)-5-trifluoromethyl-phenyl]-2-[(pyridin-4-ylmethyl)-amino]-nicotinamide] | < 50
3 | CC1(C)CN(Cc2cc[n+]([O-])cc2)c2cc(NC(=O)c3cccnc3NCc3ccncc3)ccc21 [Example 1099, N-[3,3-Dimethyl-1-(1-oxy-pyridin-4-ylmethyl)-2,3-dihydro-1H-indol-6-yl]-2-[(pyridin-4-ylmethyl)-amino]-nicotinamide] | < 50
4 | CN(C)CC(=O)N1CC(C)(C)c2ccc(NC(=O)c3cccnc3NCc3ccnc4ccccc34)cc21 [Example 1030, N-(1-(N,N-Dimethylglycyl)-3,3-dimethyl-2,3-dihydro-1H-indol-6-yl)-2-((4-quinolinylmethyl)amino)-3-pyridinecarboxamide] | < 50
5 | CC1(C)CCNc2cc(NC(=O)c3cccnc3NCc3ccncc3)ccc21 [Example 1109, N-(4,4-Dimethyl-1,2,3,4-tetrahydro-quinolin-7-yl)-2-[(pyridin-4-ylmethyl)-amino]-nicotinamide] | < 50
6 | O=C(Nc1ccc(Cl)cc1)c1cccnc1NCc1ccnc2ccccc12 [Example 20, N-(4-Chlorophenyl){2-[(4-quinolylmethyl)amino](3-pyridyl)}carboxamide] | < 50
7 | CN1CCC(C(C)(C)c2ccc(NC(=O)c3cccnc3NCc3ccnc4ccccc34)cc2)CC1 [Example 1028, N-(4-(1-Methyl-1-(1-methyl-4-piperidinyl)ethyl)phenyl)-2-((4-quinolinylmethyl)amino)-3-pyridinecarboxamide] | < 50
8 | O=C(Nc1ccc(C(F)(F)C(F)(F)F)c(OC[C@@H](O)CN2CCCC2)c1)c1cccnc1NCc1ccncc1 [Example 952, (S) N-[3-(2-Hydroxy-3-pyrrolidin-1-yl-propoxy)-4-pentafluoroethyl-phenyl]-2-[(pyridin-4-ylmethyl)-amino]-nicotinamide] | < 50
9 | CNc1cc(CNc2ncccc2C(=O)Nc2ccc3c(c2)NC(=O)CC3(C)C)ccn1 [Example 1119, N-(4,4-Dimethyl-2-oxo-1,2,3,4-tetrahydro-quinolin-7-yl)-2-[(2-methylamino-pyridin-4-ylmethyl)-amino]-nicotinamide] | < 50
10 | CCc1cc(CNc2ncccc2C(=O)Nc2ccc(C(C)(C)C)cc2)ccn1 [Example 873, N-(4-tert-Butyl-phenyl)-2-{[2-ethylpyridin-4-ylmethyl]-amino}-nicotinamide] | < 50
11 | CNc1nccc(CNc2ncccc2C(=O)Nc2ccc3c(c2)NCC3(C)C)n1 [Example 1040, N-(3,3-Dimethyl-2,3-dihydro-1H-indol-6-yl)-2-(((2-(methylamino)-4-pyrimidinyl)methyl)amino)-3-pyridinecarboxamide] | < 50
12 | CC(C)(C)c1ccc(NC(=O)c2cccnc2NCc2ccnc(OCCCN3CCOCC3)c2)cc1 [Example 904, N-(4-tert-Butyl-phenyl)-2-{[2-(3-morpholin-4-yl-propoxy)-pyridin-4-ylmethyl]-amino}-nicotinamide] | < 50
13 | O=C(Nc1ccc(C(F)(F)F)cc1)c1cccnc1NCc1ccncc1 [Example 165, {2-[(4-Pyridylmethyl)amino](3-pyridyl)}-N-[4-(trifluoromethyl)phenyl]carboxamide] | < 50
14 | CNc1nccc(CNc2ncccc2C(=O)Nc2cc(OC[C@H]3CCCN3C(C)=O)cc(C(F)(F)F)c2)n1 [Example 1085, N-(3-((((2R)-1-acetyl-2-pyrrolidinyl)methyl)oxy)-5-(trifluoromethyl)phenyl)-2-(((2-(methylamino)-4-pyrimidinyl)methyl)amino)-3-pyridinecarboxamide] | < 50
15 | COc1nccc(CNc2ncccc2C(=O)Nc2ccc(C(C)(C)C)c(NC(=O)CN(C)C)c2)n1 [Example 1074, N-(4-(1,1-dimethylethyl)-3-((N,N-dimethylglycyl)amino)phenyl)-2-(((2-(methyloxy)-4-pyrimidinyl)methyl)amino)-3-pyridinecarboxamide] | < 50
16 | CNc1nccc(CNc2ncccc2C(=O)Nc2cc(OC[C@H]3CCCN3C)cc(C(F)(F)F)c2)n1 [Example 1044, 2-(((2-(methylamino)-4-pyrimidinyl)methyl)amino)-N-(3-((((2R)-1-methyl-2-pyrrolidinyl)methyl)oxy)-5-(trifluoromethyl)phenyl)-3-pyridinecarboxamide] | < 50
17 | CS(=O)(=O)NCCOc1cc(NC(=O)c2cccnc2NCc2ccncc2)cc(C(F)(F)F)c1 [Example 1090, N-(3-((2-((methylsulfonyl)amino)ethyl)oxy)-5-(trifluoromethyl)phenyl)-2-((4-pyridinylmethyl)amino)-3-pyridinecarboxamide] | < 50
18 | CNc1cc(CNc2ncccc2C(=O)Nc2ccc3c(c2)NCC32CC2)ccn1 [Example 1107, N-(1,2-dihydroindol-3-spiro-1′-cyclopropane-6-yl)-2-[(2-methylaminopyridin-4-ylmethyl)-amino]-nicotinamide] | < 50
